# Source: article PMC8157322, “Gd(III)–Pt(IV) theranostic contrast agents for tandem MR imaging and chemotherapy” (Chemical Science, 2020)
# Key:
# [1] = Aqueous solubility (qualitative); format: physicochemical; settings: aqueous solutions / solvents
# [2] = T1/T2 relaxivity measurements in PBS; format: physicochemical; settings: 37 °C
# Method: The T1 relaxivity (r1) and T2 relaxivity (r2) of 1, GP1, and GP2 were measured at both low (1.41 T) and high (7 T) magnetic field strength in phosphate-buffered saline (PBS) to quantify how well they behave as MR contrast agents. […] The relaxivity values for 1 are well within the range of what is expected for a small molecule Gd(III) complex.[34] […] At 7 T, there was little change in r1 for both agents, while both r2 values increased, as expected. […]
# solution. These capillaries were imaged using a Bruker PharmaScan 7 T MR imaging spectrometer (Bruker BioSpin, Billerica, MA, USA). T1 relaxation times were measured using a rapid-acquisition rapid-echo (RARE-VTR) T1-map pulse sequence with static TE (10 ms) and […]
# parameters were as follows: field of view (FOV) = 25 x 25 mm2, matrix size (MTX) = 256 x 256, number of axial slices = 5, slice thickness (SI) = 1.0 mm, and averages (NEX) = 4. T1 analysis was carried out using the image sequence analysis tool in Paravision 5.0 pl2 software (Bruker, Billerica, MA, USA) with monoexponential curve-fitting of image intensities of selected regions of interest (ROIs) for each axial slice. […]
# (§1) Fig. S2 Graph of r1 of (A) GP1 measured at 1.41 T (B) GP1 measured at 7 T (C) GP2 measured at 1.41 T
# (D) GP2 measured at 7 T (E) 1 measured at 1.41 T (F) 1 measured at 7 T. All measurements were taken in PBS at 37 °C (G) 1 measured at 1.41 T with 5 mM GSH (H) GP1 measured at 1.41 T with 5 mM GSH and (I) GP2 measured at 1.41 T with 5 mM GSH.
# (§2) Table S1. r1 of GP1, GP2, and 1 in PBS with 5 mM glutathione at 37 °C
# (§3) GP1 (5 mM GSH) GP2 (5 mM GSH) 1 (5 mM GSH)
# [3] = Relaxivity after incubation in 5 mM GSH in PBS; format: physicochemical; settings: 1.41 T, PBS with 5 mM glutathione, 37 °C
# Method: This is possibly due to an increase in the rotational correlation time (τR) or a change in the inner sphere hydration number (q) of Gd(III). The differences in relaxivity of GP1 and GP2 compared to 1 offers the possibility of monitoring reduction of the agents by MR at both high and low field strength. To test this, GP1, GP2, and 1 were incubated in 5 mM GSH in PBS and the relaxivity was measured (see ESI ^†). The relaxivity of each converged to the same value (r1 of 4.4, 4.5, and 4.6 mM^−1 s^−1 for 1, GP1, and GP2 respectively), indicating the same Gd(III) species was formed after reduction. The significant change in r1 upon reduction of GP1 and GP2 theoretically could be used to monitor intracellular reduction by MR. However, further testing needs to be done to determine if these agents are suitable for this application.
# as §1
# (D) GP2 measured at 7 T (E) 1 measured at 1.41 T (F) 1 measured at 7 T. All measurements were taken
# in PBS at 37 °C (G) 1 measured at 1.41 T with 5 mM GSH (H) GP1 measured at 1.41 T with 5 mM GSH
# and (I) GP2 measured at 1.41 T with 5 mM GSH.
# as §2, §3
# A2780 cells [4] = test: MR imaging of cell pellets at 7 T; format: cell-based; settings: A2780, 7 T, 6 h incubation; cisplatin 7.5 μM, 1 100 μM, GP1 30 μM, GP2 60 μM
# HeLa cells [5] = test: MR imaging of cell pellets at 7 T; format: cell-based; settings: 6 h incubation, cisplatin 15 μM, 1 100 μM, GP1 60 μM, GP2 250 μM
# A2780 cells [6] = test: Cell viability assay (CellTiter-Glo 2.0); format: cell-based
# Method: (§4) To assess the cytotoxicity of GP1 and GP2in vitro, cell viability assays were performed to determine the IC50 concentrations in three cancer cell lines (A2780, HeLa, and MCF-7). Table 2 summarizes the IC50 concentrations of both agents compared to those of cisplatin and carboplatin. […] For all cell lines, GP1 was less toxic than cisplatin but followed the same trend of highest toxicity in A2780 cells and least toxic in MCF-7 cells. GP1 releases cisplatin intracellularly, therefore the apparent difference in toxicity of the two is likely due to decreased cell permeability of GP1 caused by the Gd(III) complex. However, because GP1 is inert in the extracellular matrix, higher doses can be safely administered to account for the decreased cell permeability. […]
# (§5) lines were grown in a humidified incubator at 37 °C and 5% CO2 and were harvested using 0.25% TrypLE. Cells were grown for 24 hours after plating before each experiment. All solutions were filtered through […] sterile filters before use.
# (§6) Viability Assays. A2780, HeLa, and MCF-7 cells were plated at a density of 3,000 cells per well (100 µL) in an opaque white 96-well plate. Cells were dosed with 100 µL of solutions of GP1, GP2, cisplatin, or carboplatin in MEM and incubated for 48 hours (GP1 or cisplatin) or 72 hours (GP2 or carboplatin). After incubation, 50 µL CellTiter-Glo 2.0 (Promega, Madison, WI) was added to each well and the assay was carried out following the manufacturer’s protocol.
# (§7) Luminescence of the wells was measured using a Synergy H1 microplate reader (BioTek, Winooski, VT). Viability was determined by comparing luminescence readings of the cells treated with agent to untreated control cells. […]
# HeLa cells [7] = test: Cell viability assay (CellTiter-Glo 2.0); format: cell-based
# Method: as §4, §5, §6, §7
# MCF-7 cells = test: Cell viability assay (CellTiter-Glo 2.0); format: cell-based
# Method: as §4, §5, §6, §7
# A2780 cells [8] = test: Concentration-dependent cell uptake, Gd and Pt by ICP-MS; format: cell-based; settings: incubated near IC50 concentrations, 24 h
# Method: (§8) Accumulation of GP1 and GP2 in cells was measured by concentration-dependent uptake experiments in A2780 and HeLa cells. Individual concentration-dependent uptake graphs are found in the ESI. ^†Table 3 compares the accumulation of Gd and Pt in A2780 and HeLa cells that were incubated with GP1, GP2, cisplatin, and carboplatin near their respective IC50 concentrations. For comparison, both cell lines were dosed with complex 1 at similar concentrations as GP1 and GP2. […] First, the accumulation of Gd in both cell lines for both agents is higher than what is typically considered the amount necessary for detection by MR (high μM concentrations).[32,33] […]
# as §7
# (§9) Aliquots of cell suspensions were mixed with the Guava ViaCount Reagent and allowed to stain for 5 minutes. The samples were vortexed for 20 seconds and cell count was determined via manual analysis using a Guava EasyCyte Mini PCA and ViaCount software. […] Performance of the instrument was assessed daily using Guava-Check Beads and the manufacturer’s protocol and Daily Check software.
# (§10) Quantification of Gadolinium and Platinum with Inductively Coupled Plasma Mass Spectrometry. […]
# HeLa cells [9] = test: as above; format: cell-based; settings: incubated near IC50 concentrations, 24 h
# Method: as §8, §7, §9, §10
smiles,measurement,setting,value
[NH2][Pt]([NH2])([OH])([OH])([Cl])[Cl] [Complex 2],Solubility,[1],insoluble in most solvents
O=C([O-])CN1CCN(CCCCCC(=O)O)CCN(CC(=O)[O-])CCN(CC(=O)[O-])CC1.[Gd+3] [Complex 1],r1 (T1 relaxivity),[2]; 1.41 T,4.1 mM⁻¹ s⁻¹
same,r1 (T1 relaxivity),[2]; 7 T,4.7 mM⁻¹ s⁻¹
same,r1 with 5 mM GSH,[3],4.4 mM⁻¹ s⁻¹
same,T1 of cell pellet,A2780 cells [4],2170 ± 34 ms
same,Δ R1 (increase in R1 vs untreated control),A2780 cells [4],6.8%
same,T1 of cell pellet,HeLa cells [5],2178 ± 42 ms
same,Δ R1 (increase in R1 vs untreated control),HeLa cells [5],5.5%
"N.N.[Cl][Pt][Cl] [Cisplatin, cisplatin]",IC50,"A2780 cells [6]; A2780, 48 h incubation",7.6 ± 2.3 µM
same,IC50,HeLa cells [7]; 48 h incubation,14.7 ± 1.2 µM
same,IC50,"MCF-7 cells; MCF-7, 48 h incubation",22.4 ± 2 µM
same,T1 of cell pellet,A2780 cells [4],2216 ± 26 ms
same,Δ R1 (increase in R1 vs untreated control),A2780 cells [4],4.6%
same,T1 of cell pellet,HeLa cells [5],2236 ± 19 ms
same,Δ R1 (increase in R1 vs untreated control),HeLa cells [5],2.7%
[NH2][Pt]1([NH2])([OH])([OH])[O]C(=O)C2(CCC2)C(=O)[O]1 [Complex 3],Solubility,[1],insoluble in most solvents
"N.N.O=C([O-])C1(C(=O)[O-])CCC1.[Pt+2] [Carboplatin, carboplatin]",IC50,"A2780 cells [6]; A2780, 72 h incubation",15.3 ± 5.8 µM
same,IC50,HeLa cells [7]; 72 h incubation,71.2 ± 4.9 µM
same,IC50,"MCF-7 cells; MCF-7, 72 h incubation",124 ± 4 µM
same,Cell accumulation of Pt,A2780 cells [8],0.22 ± 0.02 fmol per cell
same,Cell accumulation of Pt,HeLa cells [9],0.60 ± 0.11 fmol per cell
